Data from publication PMC6720883, “In Vitro Inhibitory Effects of APINACA on Human Major Cytochrome P450, UDP-Glucuronosyltransferase Enzymes, and Drug Transporters” (Molecules, 2019).
Where two headings read alike, the source gives them in different places.

Legend:
[1] = biological target: CYP2C8 (Homo sapiens, UniProt P10632); test: Inhibition of CYP2C8-catalyzed amodiaquine N-deethylase in ultrapooled human liver microsomes; format: in vitro ADME
Description: (§1) The inhibitory potentials (IC50 values) of APINACA and typical CYP inhibitors on CYP 1A2, 2A6, 2C8, 2C9, 2C19, 2D6, and 3A4 activities in pooled human liver microsomes were evaluated following our previous method using a cocktail of CYP substrates, followed by LC–MS/MS [43]. […] After 3 min of preincubation at 37 °C, the reaction mixtures were incubated for 15 min at 37 °C with the addition of NADPH in a shaking water bath. The reaction was stopped by adding 100 μL of ice cold methanol containing internal standards (d9-1′-hydroxybufuralol for 1′-hydroxybufuralol, 4′-hydroxydiclofenac, 7-hydroxycoumarin, 1′-hydroxymidazolam, and 4′-hydroxymephenytoin; ^13C2, ^15N-acetaminophen for acetaminophen and N-desethylamodiaquine). The incubation mixtures were centrifuged at 13,000× g for 8 min at 4 °C, and 50 μL of each supernatant was diluted with 50 μL of water. Aliquots (5 μL) of the diluted supernatants were analyzed by LC–MS/MS. All assays were performed in triplicate, and the average values were used for subsequent calculations.
(§2) To measure the time-dependent inhibition, human liver microsomes were preincubated with the various concentrations of APINACA (final concentrations of 0.1−100 μM) and NADPH for 30 min at 37 °C. Next, the reaction mixtures were incubated with a seven-CYP probe substrate cocktail or bupropion for 15 min at 37 °C. […]

[2] = biological target: CYP3A4 (Homo sapiens, UniProt P08684); test: Inhibition of CYP3A4-mediated midazolam 1′-hydroxylase in ultrapooled human liver microsomes; format: in vitro ADME; details: for IC50: CYP3A4 midazolam 1′-hydroxylase
Chain of CYP3A4 (P08684 2-503): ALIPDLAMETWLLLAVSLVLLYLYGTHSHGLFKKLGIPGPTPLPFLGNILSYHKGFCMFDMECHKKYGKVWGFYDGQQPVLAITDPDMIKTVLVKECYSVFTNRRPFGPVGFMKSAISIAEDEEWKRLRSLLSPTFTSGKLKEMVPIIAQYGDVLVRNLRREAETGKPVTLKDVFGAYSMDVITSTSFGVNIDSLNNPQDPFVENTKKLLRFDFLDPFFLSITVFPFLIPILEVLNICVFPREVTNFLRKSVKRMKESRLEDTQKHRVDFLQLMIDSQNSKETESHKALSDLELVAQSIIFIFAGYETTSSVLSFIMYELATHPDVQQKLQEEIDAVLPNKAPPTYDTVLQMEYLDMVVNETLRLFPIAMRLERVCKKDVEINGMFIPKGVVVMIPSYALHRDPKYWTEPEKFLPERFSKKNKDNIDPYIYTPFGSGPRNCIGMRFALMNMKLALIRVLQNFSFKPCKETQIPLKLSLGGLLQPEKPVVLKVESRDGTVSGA
Description: as §1
(§3) To measure the time-dependent inhibition, human liver microsomes were preincubated with the various concentrations of APINACA (final concentrations of 0.1−100 μM) and NADPH for 30 min at 37 °C. Next, the reaction mixtures were incubated with a seven-CYP probe substrate cocktail or bupropion for 15 min at 37 °C. The control reaction was performed by adding methanol instead of the test compounds.
The column and autosampler temperatures were 40 °C and 4 °C, respectively.
(§4) The data were processed using Mass Hunter software (Agilent Technologies).
(§5) 1.1 (Systat Software, Inc.).

[3] = biological target: CYP2A6 (Homo sapiens, UniProt P11509); test: Inhibition of CYP2A6-mediated coumarin 7-hydroxylase in ultrapooled human liver microsomes; format: in vitro ADME
Chain of CYP2A6 (P11509 whole entry): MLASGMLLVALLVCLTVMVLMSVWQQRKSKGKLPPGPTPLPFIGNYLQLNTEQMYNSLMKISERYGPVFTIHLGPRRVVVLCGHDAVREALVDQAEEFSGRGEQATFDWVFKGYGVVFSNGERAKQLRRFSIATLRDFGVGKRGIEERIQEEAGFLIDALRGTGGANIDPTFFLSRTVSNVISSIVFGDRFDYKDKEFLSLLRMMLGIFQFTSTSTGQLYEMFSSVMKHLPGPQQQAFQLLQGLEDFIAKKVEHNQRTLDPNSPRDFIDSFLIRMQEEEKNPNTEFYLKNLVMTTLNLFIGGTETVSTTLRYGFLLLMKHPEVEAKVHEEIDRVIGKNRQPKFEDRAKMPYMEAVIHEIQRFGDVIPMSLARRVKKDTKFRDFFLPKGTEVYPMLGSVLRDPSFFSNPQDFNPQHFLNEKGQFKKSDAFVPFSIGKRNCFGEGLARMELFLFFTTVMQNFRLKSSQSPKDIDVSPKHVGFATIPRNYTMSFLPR
Description: as §1, §2

[4] = biological target: CYP2B6 (Homo sapiens, UniProt P20813); test: Inhibition of CYP2B6-mediated bupropion hydroxylase in ultrapooled human liver microsomes; format: in vitro ADME
Chain of CYP2B6 (P20813 whole entry): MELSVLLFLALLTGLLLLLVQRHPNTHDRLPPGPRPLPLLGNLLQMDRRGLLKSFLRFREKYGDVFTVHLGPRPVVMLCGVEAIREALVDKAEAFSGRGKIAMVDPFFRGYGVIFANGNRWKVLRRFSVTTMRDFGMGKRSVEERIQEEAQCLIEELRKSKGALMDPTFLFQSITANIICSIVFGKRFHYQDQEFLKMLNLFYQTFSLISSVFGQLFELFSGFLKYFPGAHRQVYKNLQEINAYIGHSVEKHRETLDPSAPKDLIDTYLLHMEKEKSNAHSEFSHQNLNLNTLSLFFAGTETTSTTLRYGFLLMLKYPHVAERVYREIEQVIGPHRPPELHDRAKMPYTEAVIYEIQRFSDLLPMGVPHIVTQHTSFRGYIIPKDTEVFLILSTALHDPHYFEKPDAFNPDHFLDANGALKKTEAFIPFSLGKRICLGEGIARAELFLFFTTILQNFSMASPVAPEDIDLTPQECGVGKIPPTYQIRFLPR
Description: After 3 min of preincubation at 37 °C, the reaction mixtures were incubated with the addition of NADPH in a shaking water bath for 15 min at 37 °C. The reaction was stopped by adding 100 μL of ice cold d9-1′-hydroxybufuralol (internal standard) in methanol.
Next, the reaction mixtures were incubated with a seven-CYP probe substrate cocktail or bupropion for 15 min at 37 °C.
The LC-MS/MS system was comprised of an Agilent 6495 triple quadrupole mass spectrometer coupled with an Agilent 1290 Infinity system (Agilent Technologies, CA, USA). The column and autosampler temperatures were 40 °C and 4 °C, respectively.
as §4
(§6) 12.5 (Systat Software, Inc.; San Jose, CA, USA). […] 1.1 (Systat Software, Inc.).

[5] = blood samples of three driving under the influence of drugs cases; cited from earlier work
[6] = biological target: P-glycoprotein (P-gp) (Homo sapiens, UniProt P08183); test: B to A transport of [3-H]digoxin in LLC-PK1-MDR1 cells
Chain of P-glycoprotein (P-gp) (P08183 whole entry): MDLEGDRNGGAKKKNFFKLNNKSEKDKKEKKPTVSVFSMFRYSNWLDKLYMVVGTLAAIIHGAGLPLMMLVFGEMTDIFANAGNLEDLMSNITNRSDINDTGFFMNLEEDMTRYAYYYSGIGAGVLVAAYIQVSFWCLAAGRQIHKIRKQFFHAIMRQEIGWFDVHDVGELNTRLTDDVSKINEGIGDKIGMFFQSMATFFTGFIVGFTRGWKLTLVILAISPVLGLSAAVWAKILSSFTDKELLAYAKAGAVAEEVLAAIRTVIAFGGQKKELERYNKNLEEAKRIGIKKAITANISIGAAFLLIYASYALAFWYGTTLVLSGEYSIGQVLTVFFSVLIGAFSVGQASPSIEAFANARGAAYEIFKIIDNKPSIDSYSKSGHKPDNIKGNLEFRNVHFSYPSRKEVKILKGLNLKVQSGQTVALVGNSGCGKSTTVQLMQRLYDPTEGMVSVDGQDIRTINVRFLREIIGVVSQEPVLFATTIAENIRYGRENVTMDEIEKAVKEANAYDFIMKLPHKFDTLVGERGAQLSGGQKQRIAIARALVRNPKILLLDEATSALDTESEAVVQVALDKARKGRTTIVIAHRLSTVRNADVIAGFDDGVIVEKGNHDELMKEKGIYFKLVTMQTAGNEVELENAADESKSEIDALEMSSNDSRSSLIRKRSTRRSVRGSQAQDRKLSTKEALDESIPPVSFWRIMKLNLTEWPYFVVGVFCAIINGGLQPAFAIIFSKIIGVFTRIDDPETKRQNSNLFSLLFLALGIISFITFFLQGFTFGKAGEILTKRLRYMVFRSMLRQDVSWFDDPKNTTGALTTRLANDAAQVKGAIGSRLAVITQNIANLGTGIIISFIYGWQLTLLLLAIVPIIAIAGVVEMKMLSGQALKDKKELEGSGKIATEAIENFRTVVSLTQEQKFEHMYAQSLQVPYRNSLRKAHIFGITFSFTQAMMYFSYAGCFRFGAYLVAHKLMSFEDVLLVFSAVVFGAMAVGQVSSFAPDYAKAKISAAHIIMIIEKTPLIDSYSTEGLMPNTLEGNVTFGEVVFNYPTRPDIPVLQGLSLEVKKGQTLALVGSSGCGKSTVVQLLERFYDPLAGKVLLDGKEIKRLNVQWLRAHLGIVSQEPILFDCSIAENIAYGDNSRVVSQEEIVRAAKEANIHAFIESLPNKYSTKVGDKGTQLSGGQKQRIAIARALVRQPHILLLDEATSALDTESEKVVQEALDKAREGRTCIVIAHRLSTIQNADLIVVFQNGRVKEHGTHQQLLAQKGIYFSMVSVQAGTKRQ
Description: The cells were seeded onto filter membranes at a density of 2 × 10^5 cells/well for 5 days with TEER values over 450 Ω·cm^2. The B to A transport of 0.1 μM [3-H]digoxin in LLC-PK1-MDR1 cells was measured by adding 1.5 mL of HBSS containing APINACA (final concentrations of 0–100 μM) on the basal side and by adding 0.5 mL of HBSS without APINACA on the apical side of the insert using protocols identical to those described above.
as §5

[7] = biological target: UGT1A6 (Homo sapiens, UniProt P19224); test: Inhibition of UGT1A6-catalyzed N-acetylserotonin glucuronidation in human liver microsomes
Chain of UGT1A6 (P19224 27-532): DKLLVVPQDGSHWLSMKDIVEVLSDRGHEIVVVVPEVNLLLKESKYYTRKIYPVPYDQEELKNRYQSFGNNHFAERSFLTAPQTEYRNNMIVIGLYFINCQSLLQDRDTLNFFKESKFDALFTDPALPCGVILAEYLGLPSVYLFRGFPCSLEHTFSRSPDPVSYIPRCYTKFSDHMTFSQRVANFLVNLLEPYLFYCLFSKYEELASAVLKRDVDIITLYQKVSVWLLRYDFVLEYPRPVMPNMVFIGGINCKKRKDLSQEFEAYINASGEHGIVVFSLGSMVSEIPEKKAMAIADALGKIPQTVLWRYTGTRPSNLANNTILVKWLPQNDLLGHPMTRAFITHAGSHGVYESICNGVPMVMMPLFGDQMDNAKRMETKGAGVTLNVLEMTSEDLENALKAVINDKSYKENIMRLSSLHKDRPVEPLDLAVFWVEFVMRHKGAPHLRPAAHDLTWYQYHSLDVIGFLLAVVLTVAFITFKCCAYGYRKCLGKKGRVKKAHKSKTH
Description: The inhibitory effect of APINACA and typical UGT inhibitors on UGT1A1, UGT1A3, UGT1A4, UGT1A6, UGT1A9, and UGT2B7 were evaluated following our previous method by LC–MS/MS after incubation of ultrapooled human liver microsomes with a cocktail of UGT substrates. […] The reactions were initiated by adding UDPGA, and the incubation continued for 60 min at 37 °C in a shaking water bath. The reactions were terminated by adding 50 μL of ice-cold acetonitrile containing internal standards (propofol glucuronide for chenodeoxycholic acid 24-acyl-β-glucuronide and mycophenolic acid glucuronide; and meloxicam for SN-38 glucuronide, trifluoperazine glucuronide, N-acetylserotonin β-D-glucuronide, and naloxone 3-β-D-glucuronide). The incubation mixtures were centrifuged at 13,000× g for 8 min at 4 °C. Next, 50 μL of each supernatant of A and B set was mixed, and aliquots (5 μL) were analyzed by LC–MS/MS. All assays were performed in triplicate, and the average values were used in calculations.
as §3, with “0.1–100” for “0.1−100”, “UDPGA” for “NADPH”, “UGT” for “a seven-CYP”, “sets” for “or bupropion”, “60” for “15”
as §5

[8] = biological target: UGT2B7 (Homo sapiens, UniProt P16662); test: Inhibition of UGT2B7-catalyzed naloxone 3-β-D-glucuronidation in human liver microsomes; format: in vitro ADME
Chain of UGT2B7 (P16662 24-529): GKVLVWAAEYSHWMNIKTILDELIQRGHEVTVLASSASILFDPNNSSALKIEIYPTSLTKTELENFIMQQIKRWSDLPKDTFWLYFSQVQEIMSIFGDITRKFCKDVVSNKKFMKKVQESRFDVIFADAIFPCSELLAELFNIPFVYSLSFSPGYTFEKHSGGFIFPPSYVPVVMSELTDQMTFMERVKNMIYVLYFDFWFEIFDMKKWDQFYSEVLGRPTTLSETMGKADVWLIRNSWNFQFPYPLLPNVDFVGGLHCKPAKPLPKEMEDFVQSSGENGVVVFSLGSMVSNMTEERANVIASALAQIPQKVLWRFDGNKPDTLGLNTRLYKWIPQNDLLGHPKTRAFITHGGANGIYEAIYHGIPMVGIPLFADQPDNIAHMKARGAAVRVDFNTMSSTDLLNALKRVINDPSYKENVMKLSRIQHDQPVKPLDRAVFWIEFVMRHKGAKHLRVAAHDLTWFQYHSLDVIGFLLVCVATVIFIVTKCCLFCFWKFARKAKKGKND
Description: The inhibitory effect of APINACA and typical UGT inhibitors on UGT1A1, UGT1A3, UGT1A4, UGT1A6, UGT1A9, and UGT2B7 were evaluated following our previous method by LC–MS/MS after incubation of ultrapooled human liver microsomes with a cocktail of UGT substrates [44]. […] The reactions were initiated by adding UDPGA, and the incubation continued for 60 min at 37 °C in a shaking water bath. The reactions were terminated by adding 50 μL of ice-cold acetonitrile containing internal standards (propofol glucuronide for chenodeoxycholic acid 24-acyl-β-glucuronide and mycophenolic acid glucuronide; and meloxicam for SN-38 glucuronide, trifluoperazine glucuronide, N-acetylserotonin β-D-glucuronide, and naloxone 3-β-D-glucuronide). The incubation mixtures were centrifuged at 13,000× g for 8 min at 4 °C. Next, 50 μL of each supernatant of A and B set was mixed, and aliquots (5 μL) were analyzed by LC–MS/MS. All assays were performed in triplicate, and the average values were used in calculations.
To measure the time-dependent inhibition, human liver microsomes were preincubated with the various concentrations of APINACA (final concentrations of 0.1–100 μM) and UDPGA for 30 min at 37 °C. Next, the reaction mixtures were incubated with UGT probe substrate cocktail sets for 60 min at 37 °C. The control reaction was performed by adding methanol instead of the test compounds.

[9] = biological target: T1, UGT1A9 (Homo sapiens, UniProt O60656); test: Inhibition of UGT1A9-catalyzed mycophenolic acid glucuronidation in human liver microsomes; format: in vitro ADME; set-up: […]; tissue Corning Life Sciences; details: IC50 UGT1A9 mycophenolic acid glucuronidation, pooled human liver microsomes
T1 sequence (O60656 26-530): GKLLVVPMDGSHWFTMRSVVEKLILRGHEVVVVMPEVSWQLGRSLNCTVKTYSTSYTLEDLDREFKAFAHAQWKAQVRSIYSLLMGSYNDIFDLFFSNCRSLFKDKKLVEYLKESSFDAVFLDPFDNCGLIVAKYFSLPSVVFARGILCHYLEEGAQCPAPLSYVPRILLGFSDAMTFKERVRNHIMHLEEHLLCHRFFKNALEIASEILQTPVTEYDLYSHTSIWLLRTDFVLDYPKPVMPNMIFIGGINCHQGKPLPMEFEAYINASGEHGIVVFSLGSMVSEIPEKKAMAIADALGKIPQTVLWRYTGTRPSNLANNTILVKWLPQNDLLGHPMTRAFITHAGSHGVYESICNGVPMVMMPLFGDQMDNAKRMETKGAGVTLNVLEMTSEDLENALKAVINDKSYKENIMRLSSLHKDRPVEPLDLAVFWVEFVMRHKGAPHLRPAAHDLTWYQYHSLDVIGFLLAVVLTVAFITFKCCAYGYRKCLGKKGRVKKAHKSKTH
Source text: as §6

Chain of CYP2C8 (P10632 whole entry): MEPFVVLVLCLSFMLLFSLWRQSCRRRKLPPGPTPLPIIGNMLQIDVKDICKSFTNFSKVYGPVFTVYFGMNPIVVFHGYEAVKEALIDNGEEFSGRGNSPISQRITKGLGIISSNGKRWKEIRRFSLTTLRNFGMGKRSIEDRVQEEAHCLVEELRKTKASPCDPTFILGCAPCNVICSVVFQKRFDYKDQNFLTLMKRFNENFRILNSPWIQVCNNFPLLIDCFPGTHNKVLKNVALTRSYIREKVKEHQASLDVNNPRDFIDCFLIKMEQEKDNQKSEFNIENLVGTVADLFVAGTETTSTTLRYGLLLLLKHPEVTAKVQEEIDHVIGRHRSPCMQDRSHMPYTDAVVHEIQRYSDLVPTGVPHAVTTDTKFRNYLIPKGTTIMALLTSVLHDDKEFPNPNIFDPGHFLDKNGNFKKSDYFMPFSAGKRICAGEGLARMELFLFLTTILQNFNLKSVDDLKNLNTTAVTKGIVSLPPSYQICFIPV

Question: With `CCCCCn1nc(C(=O)NC23CC4CC(CC(C4)C2)C3)c2ccccc21` [APINACA, N-(1-adamantyl)-1-pentyl-1H-indazole-3-carboxamide] as the compound, how does the IC50 [1] read?
Answer: > 100 µM

Question: What about the IC50 ([1]; read-out: IC50 (μM) With Preincubation, CYP2C8 amodiaquine N-deethylase, ultrapooled human liver microsomes, 30-min preincubation with NADPH) of the same compound?
Answer: > 100 µM

Question: And the IC50 ([2]; IC50 (μM) No Preincubation, 2.5 μM midazolam, no preincubation)?
Answer: 16.9 µM

Question: And the IC50 ([2]; IC50 (μM) With Preincubation, 30-min preincubation with NADPH)?
Answer: 4.2 µM

Question: What about the “fold lower IC50 of CYP3A4 midazolam 1′-hydroxylase after 30-min preincubation than with no preincubation” value ([2]; NADPH) of the same compound?
Answer: ca. 4 fold

Question: What about the IC50 [3] of the same compound?
Answer: > 100 µM

Question: And the IC50 ([3]; read-out: IC50 (μM) With Preincubation, CYP2A6 coumarin 7-hydroxylase, ultrapooled human liver microsomes, 30-min preincubation with NADPH)?
Answer: > 100 µM

Question: And the IC50 [4]?
Answer: > 100 µM

Question: What about the IC50 ([4]; read-out: IC50 (μM) With Preincubation, CYP2B6 bupropion hydroxylase, ultrapooled human liver microsomes, 30-min preincubation with NADPH) of the same compound?
Answer: > 100 µM

Question: What about the blood concentrations [5] of the same compound?
Answer: 0.66 to 67.1 nM

Question: And the IC50 [6]?
Answer: > 100 µM

Question: What about the IC50 [7] of the same compound?
Answer: > 100 µM

Question: What about the IC50 ([7]; read-out: IC50 UGT1A6 N-acetylserotonin glucuronidation, with 30-min preincubation, pooled human liver microsomes, 30-min preincubation with UDPGA (○)) of the same compound?
Answer: > 100 µM

Question: And the IC50 [8]?
Answer: > 100 µM

Question: What about the IC50 ([8]; read-out: IC50 UGT2B7 naloxone 3-β-D-glucuronidation, with 30-min preincubation, pooled human liver microsomes, 30-min preincubation with UDPGA (○)) of the same compound?
Answer: > 100 µM

Question: And the IC50 ([9]; with 30-min preincubation, 30-min preincubation with UDPGA (○))?
Answer: 30.7 µM

Question: What about the IC50 ([9]; without preincubation, 0.2 µM mycophenolic acid) of the same compound?
Answer: 32.7 µM
